Laboratory results published in US9469645B2, “Compounds and compositions for the treatment of parasitic diseases” (Novartis AG, priority 2009, dated 2016).

Experiments:
[1] = tested on: W2 strain; experiment: parasite proliferation assay in infected red blood cells (SYBR Green I), W2 strain; type: cell-based, Plasmodium falciparum; conditions: Plasmodium falciparum, Erythrocyte
Source text: Compounds of the invention can be assayed to measure their capacity to inhibit proliferation of parasitemia in infected red blood cells. The proliferation is quantified by the addition of SYBR Green I (INVITROGEN)® dye which has a high affinity for double stranded DNA.

[2] = tested on: 3D7 P. falciparum strain; experiment: parasite proliferation assay in infected red blood cells (SYBR Green I); type: cell-based, Plasmodium falciparum; conditions: Plasmodium falciparum, 3D7, Erythrocyte, 3D7 strain; read-out: EC50 3D7 strain
Method in brief: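 P. falciparum 3D7 grown in O+ human erythrocytes to 3–8% parasitemia and exposed to compounds. Proliferation read as the increase in parasite DNA. Detection used SYBR Green I in saponin/triton-X/EDTA lysis buffer, with overnight lysis at room temperature.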

Row | Structure (SMILES) | EC50 [1] | EC50 [2]
1 | C[C@H]1NC(=O)Cn2c1nc(-c1ccc(F)cc1)c2Nc1ccc(Cl)c(F)c1 [Compound 564] | 359 nM | 250 nM
2 | CC(C)(C)OC(=O)NCC(=O)N1CCn2cc(-c3ccc(F)cc3)nc2C1 [Compound 540, tert-butyl 2-(2-(4-fluorophenyl)-5,6-dihydroimidazo[1,2-a]pyrazin-7(8H)-yl)-2-oxoethylcarbamate] | 9810 nM | 8420 nM
3 | CC1(C)NCCn2c1nc(-c1ccc(F)cc1)c2Nc1ccc(F)c(Cl)c1 [Compound 424] | 30 nM | 20 nM
4 | Cc1ccc(Nc2c(-c3ccc(F)cc3)nc3n2CCN(C(=O)CN)C3(C)C)cc1C#N [Compound 525] | 13 nM | 10 nM
5 | CC(C)N(c1ccc(Cl)c(F)c1)c1c(-c2ccc(F)cc2)nc2n1CCNC2 [Compound 444] | 5960 nM | 7220 nM
6 | COc1ccc(CN2Cc3nc(-c4cccc(F)c4)c(Nc4ccc(C)cc4)n3C(C)(C)C2)cc1 [Compound 582] | 5920 nM | 5560 nM
7 | Cc1ccc(Nc2c(-c3ccc(F)cc3)nc3n2CCN(C(=O)[C@@H](N)Cc2ccc(F)cc2)C3)cc1 [Compound 483] | 25 nM | 50 nM
8 | Cc1ccc(C[C@H](N)C(=O)N2CCn3c(nc(-c4ccc(F)cc4)c3Nc3ccc(Cl)cc3)C2)cc1 [Compound 459] | 24 nM | 40 nM
9 | CN1CCN(c2ccc(Nc3c(-c4ccc(F)cc4)nc4n3CCNC4(C)C)cc2)CC1 [Compound 572] | 8730 nM | 11200 nM
10 | CC1(C)c2nc(-c3ccc(F)cc3)c(Nc3ccc(S(C)(=O)=O)cc3)n2CCN1C(=O)CN [Compound 570] | 5560 nM | 5680 nM
11 | CC1(C)Cn2c(nc(-c3ccc(F)cc3)c2Nc2ccc(F)c(F)c2)CN1 [Compound 580] | 169 nM | 150 nM
12 | CC1(C)Cn2c(nc(-c3ccc(F)cc3)c2Nc2ccc(F)cc2)CN1 [Compound 579] | 146 nM | 180 nM
13 | CC1(C)Cn2c(nc(-c3ccc(F)cc3)c2Nc2ccc(C#N)c(F)c2)CN1C(=O)CN [Compound 577] | 611 nM | 630 nM
14 | CC(C)N(c1cccc(F)c1)c1c(-c2ccc(F)cc2)nc2n1CCNC2 [Compound 445] | 3270 nM | 2600 nM
15 | N[C@@H](Cc1ccc(F)cc1)C(=O)N1CCn2c(nc(-c3ccc(F)cc3)c2Nc2ccc(Cl)cc2)C1 [Compound 458] | 17 nM | 20 nM
16 | CC1(C)c2nc(-c3ccc(F)cc3)c(Nc3cccc(C(F)(F)F)c3)n2CCN1C(=O)C(F)(F)F [Compound 528] | 121 nM | 150 nM
17 | C[C@H]1c2nc(-c3ccc(F)cc3)c(Nc3ccc(Cl)c(F)c3)n2CCN1C(=O)CN [Compound 597] | 24 nM | 30 nM
18 | N[C@H](C(=O)N1CCn2c(nc(-c3ccc(F)cc3)c2Nc2ccc(Cl)cc2)C1)c1ccc(F)cc1 [Compound 457] | 11 nM | 20 nM
19 | CC1(C)Cn2c(nc(-c3ccc(F)cc3)c2Nc2ccc(F)c(F)c2)CN1C(=O)CN [Compound 575] | 81 nM | 80 nM
20 | CC1(C)NC(=O)Cn2c1nc(-c1ccc(F)cc1)c2Nc1ccc(Cl)c(F)c1 [Compound 511] | 65 nM | 40 nM
21 | CC1(C)NCCn2c1nc(-c1ccc(F)cc1)c2Nc1ccc(F)c(C(=O)O)c1 [Compound 523] | 11600 nM | 13100 nM

Row | Structure (SMILES) | EC50 [1] | EC50 [2]
22 | CC[C@H](C)[C@H](N)C(=O)N1CCn2c(nc(-c3ccc(F)cc3)c2Nc2ccc(F)c(F)c2)C1 [Compound 442] | 33 nM | 20 nM
23 | Cc1ccnc(Nc2c(-c3ccc(F)cc3)nc3n2CC(=O)NC3(C)C)c1 [Compound 547] | 4660 nM | 1820 nM
24 | Cc1cc(Nc2c(-c3ccc(F)cc3)nc3n2CCN(C(=O)CN)C3(C)C)ccc1Cl [Compound 496] | 8 nM | 30 nM
25 | CC(C)C[C@H](N)C(=O)N1CCn2c(nc(-c3ccc(F)cc3)c2Nc2ccc(Cl)cc2)C1 [Compound 453] | 21 nM | 20 nM
26 | Cc1ccc(Nc2c(-c3ccc(Cl)c(F)c3)nc3n2CCN(C(=O)C(C)(C)N)C3)cc1 [Compound 521] | 3030 nM | 5000 nM
27 | N[C@@H](CC1CCC1)C(=O)N1CCn2c(nc(-c3ccc(F)cc3)c2Nc2ccc(Cl)cc2)C1 [Compound 452] | 19 nM | 20 nM
28 | CC(C)[C@H](N)C(=O)N1CCn2c(nc(-c3ccc(F)cc3)c2Nc2ccc(Cl)cc2)C1 [Compound 449] | 26 nM | 30 nM
29 | CC(C)(C)[C@H](N)C(=O)N1CCn2c(nc(-c3ccc(F)cc3)c2Nc2ccc(F)cc2)C1 [Compound 478] | 39 nM | 60 nM
30 | CC1(C)NC(=O)Cn2c1nc(-c1ccc(F)cc1)c2Nc1ccc(Cl)cc1 [Compound 508] | 126 nM | 130 nM
31 | COc1cc(Nc2c(-c3ccc(F)cc3)nc3n2CCN(C(=O)C(C)(C)N)C3)cc(F)c1F [Compound 427] | 436 nM | 210 nM
32 | CN1CCN(c2ccc(Nc3c(-c4ccc(F)cc4)nc4n3CCN(C(=O)CN)C4(C)C)cc2)CC1 [Compound 571] | 7480 nM | 6200 nM
33 | Cc1ccc(Nc2c(-c3ccc(F)c(C)c3)nc3n2CCN(C(=O)C(C)(C)N)C3)cc1 [Compound 518] | 2890 nM | 4980 nM
34 | Cc1ccc(Nc2c(-c3ccc(F)c(Cl)c3)nc3n2CCNC3)cc1 [Compound 497] | 5820 nM | 8000 nM
35 | Cc1cc(Nc2c(-c3ccc(F)cc3)nc3n2CCN(C(=O)CN)C3(C)C)ccc1F [Compound 495] | 39 nM | 90 nM
36 | N[C@@H](Cc1ccc(F)c(F)c1)C(=O)N1CCn2c(nc(-c3ccc(F)cc3)c2Nc2ccc(F)cc2)C1 [Compound 475] | 30 nM | 40 nM
37 | CC(C)[C@H](N)C(=O)N1CCn2c(nc(-c3ccc(F)cc3)c2Nc2ccc(F)c(F)c2)C1 [Compound 434] | 19 nM | 20 nM
38 | N[C@@H](Cc1ccc(F)cc1)C(=O)N1CCn2c(nc(-c3ccc(F)cc3)c2Nc2ccc(F)c(F)c2)C1 [Compound 443] | 55 nM | 50 nM
39 | Cc1ccc(Nc2c(-c3ccncc3)nc3n2CCN(C(=O)C(C)(C)N)C3)cc1 [Compound 398] | 2680 nM | 2730 nM
40 | CC1(C)NCCn2c1nc(-c1ccc(F)cc1)c2Nc1ccc(F)c(F)c1 [Compound 422] | 21 nM | 10 nM
41 | Cc1ccc(Nc2c(-c3cc(F)ccc3F)nc3n2CCN(C(=O)CN)C3)cc1 [Compound 418] | 146 nM | 90 nM
42 | CC1(C)NCCn2c1nc(-c1ccc(F)cc1)c2Nc1ccc(F)c(C#N)c1 [Compound 524] | 57 nM | 40 nM

Row | Structure (SMILES) | EC50 [1] | EC50 [2]
43 | CC(C)[C@@H](O)C(=O)N1CCn2c(nc(-c3ccc(F)cc3)c2Nc2ccc(F)cc2)C1 [Compound 471] | 30 nM | 30 nM
44 | CC1(C)Cn2c(nc(-c3ccc(F)cc3)c2Nc2ccc(Cl)c(F)c2)CN1C(=O)CN [Compound 576] | 234 nM | 200 nM
45 | Cc1ccc(Nc2c(-c3ccc(F)cc3)nc3n2CCNC3(C)C)cc1C(=O)O [Compound 526] | 974 nM | 1120 nM
46 | N[C@H](C(=O)N1CCn2c(nc(-c3ccc(F)cc3)c2Nc2ccc(Cl)c(F)c2)C1)c1ccc(F)cc1 [Compound 490] | 33 nM | 50 nM
47 | CC(C)(N)C(=O)N1CCn2c(nc(-c3ccc(F)cc3)c2Nc2ccc(F)c(Cl)c2)C1(C)C [Compound 586] | 7 nM | 10 nM
48 | Cc1ccc(Nc2c(-c3ccc(F)cc3)nc3n2CCN(C(=O)CN)C3(C)C)cc1 [Compound 409] | 6 nM | 10 nM
49 | CC(C)(N)C(=O)N1CCn2c(nc(-c3ccc(F)cc3)c2Nc2ccc(Cl)cc2)C1(C)C [Compound 584] | 21 nM | 20 nM
50 | Cc1ccc(Nc2c(-c3ccc(F)c(C)c3)nc3n2CCN(C(=O)CN)C3)cc1 [Compound 517] | 51 nM | 50 nM
51 | CC1(C)c2nc(-c3ccc(F)cc3)c(Nc3cc(F)c(F)c(F)c3)n2CCN1C(=O)CN [Compound 554] | 7 nM | 
52 | CC1(C)c2nc(-c3ccc(F)cc3)c(Nc3cccc(F)c3)n2CCN1C(=O)C(F)(F)F [Compound 516] | 26 nM | 30 nM
53 | CC1(C)c2nc(-c3ccc(F)cc3)c(Nc3cccc(NS(C)(=O)=O)c3)n2CCN1C(=O)CN [Compound 552] | 4480 nM | 2520 nM
54 | C[C@@H]1c2nc(-c3ccc(F)cc3)c(Nc3ccc(Cl)c(F)c3)n2CCN1C(=O)CN [Compound 596] | 29 nM | 30 nM
55 | CN[C@@H](C(=O)N1CCn2c(nc(-c3ccc(F)cc3)c2Nc2ccc(C)cc2)C1)C(C)C [Compound 414] | 156 nM | 160 nM
56 | CC1(C)NC(=O)Cn2c1nc(-c1ccc(F)cc1)c2Nc1ccc(Cl)c(Cl)c1 [Compound 506] | 198 nM | 190 nM
57 | Cc1ccc(Nc2c(-c3ccc(F)cc3)nc3n2C(C)(C)C(=O)N(C)C3(C)C)cc1 [Compound 538] | 8060 nM | 7670 nM
58 | Cc1ccc(Nc2c(-c3ccc(F)cc3)nc3n2CCN(C(=O)[C@H](C)NCc2ccccc2)C3)cc1 [Compound 403] | 543 nM | 510 nM
59 | CNC(=O)c1cccc(Nc2c(-c3ccc(F)cc3)nc3n2CCN(C(=O)CN)C3(C)C)c1 [Compound 553] | 4660 nM | 2370 nM
60 | CC1(C)Cn2c(nc(-c3ccc(F)cc3)c2Nc2ccc(F)cc2)CN1C(=O)CN [Compound 574] | 111 nM | 80 nM
61 | CC1(C)NC(=O)Cn2c1nc(-c1ccc(F)cc1)c2Nc1cc(F)c(F)c(F)c1 [Compound 543] | 305 nM | 170 nM
